Results reported in article PMC9169222, “Impedance-Based Phenotypic Readout of Transporter Function: A Case for Glutamate Transporters” (Frontiers in Pharmacology, 2022).
pEC50: −log10 of the molar value. Where a name gives a salt, the structure may show the parent alone. Read-outs that look alike come from different tables or passages of the source.

Columns and labels:
[1] = test system: JumpIn-EAAT1-LifeAct-GFP cells; assay: Automated confocal microscopy of the actin cytoskeleton (cell spreading); format: cell-based, human; conditions: dox-induced cells, 1 mM, within 2 h
Description: For visualization of the actin cytoskeleton, JumpIn-EAAT1 cells were transduced with a lentiviral GFP-LifeAct cDNA expression vector and were maintained in culture medium containing 2 μg/ml puromycin to select for successfully transduced cells.
JumpIn-EAAT1-LifeAct-GFP cells were seeded at 20,000 cells/well on a SCREENSTAR black-walled clear-bottom 96-well culture plate in 90 µl culture medium and grown for 24 h at 37°C and 5% CO2. […] Microscopy was performed on a Nikon Eclipse Ti2 C2+ confocal microscope (Nikon, Amsterdam, Netherlands). This system was equipped with a 37°C incubation chamber, an automated xy-stage, an integrated Perfect Focus System (PFS) and 408, 488, and 561 nm lasers. The system was controlled by Nikon’s NIS software. All images were acquired using a Plan-Apochromat ×20 objective with 0.75 NA, at a resolution of 512 × 512 pixels.

[2] = target: T1, EAAT5 (JumpIn-EAAT5 cells) (Homo sapiens, UniProt O00341); assay: Impedance-based phenotypic assay on JumpIn-EAAT5 cells; format: cell-based; conditions: JumpIn-EAAT5, 1 mM L-glu, p = 0.0032
T1 construct: expressed in transfected cells; host or cells: Jump In T-REx HEK 293
T1 sequence (O00341 whole entry): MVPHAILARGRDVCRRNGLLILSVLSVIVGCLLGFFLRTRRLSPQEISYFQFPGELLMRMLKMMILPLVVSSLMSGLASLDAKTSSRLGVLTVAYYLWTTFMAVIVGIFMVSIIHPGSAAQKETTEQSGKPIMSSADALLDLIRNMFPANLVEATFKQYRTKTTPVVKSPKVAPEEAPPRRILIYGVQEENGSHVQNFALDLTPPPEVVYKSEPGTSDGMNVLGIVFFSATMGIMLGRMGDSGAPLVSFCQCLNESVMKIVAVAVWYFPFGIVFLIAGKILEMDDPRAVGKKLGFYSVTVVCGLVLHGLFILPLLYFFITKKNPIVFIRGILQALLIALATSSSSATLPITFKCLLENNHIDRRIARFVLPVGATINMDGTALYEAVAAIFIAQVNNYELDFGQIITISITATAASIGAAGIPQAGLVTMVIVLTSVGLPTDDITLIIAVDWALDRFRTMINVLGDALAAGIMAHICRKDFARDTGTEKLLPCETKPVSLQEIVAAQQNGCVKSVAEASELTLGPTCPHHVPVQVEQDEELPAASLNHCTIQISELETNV
Description: Label-free whole-cell assays, based on cell-induced changes in impedance, were performed using the xCELLigence real-time cell analyzer (RTCA) system (ACEA Biosciences, San Diego, CA, United States) as described previously ([Vlachodimou et al., 2019]; [Sijben et al., 2021a], [2021b]). In short, cells are cultured in medium on gold-plated electrodes in microwell E-plates. Per well impedance is continuously measured at 10 kHz and is converted to the unitless parameter Cell Index (CI) by the following formula: CI=(Zi−Z0)Ω/15Ω where Zi is the impedance at any given time point and Z0 is the baseline impedance measured at the start of each experiment ([Kho et al., 2015]).
Assays were performed at 37°C and 5% CO2 in 96-well PET E-plates in a total volume of 100 µl per well. Prior to cell seeding, the baseline impedance (Z0) was measured in the recording station in 40 µl (two compound additions) or 45 µl (one compound addition) medium in the presence (+) or absence (−) of 1 μg/ml dox. […]
On the day of the experiment, JumpIn-EAAT cells grown to 70–80% confluence were trypsinized (0.25% trypsin in PBS/EDTA), counted and seeded in the E-plate in a volume of 50 μl at 60,000 cells/well. […] Cell growth was recorded overnight for 22 h. […] After stimulation the impedance was measured for at least 2 h. […]
Experimental data was recorded using RTCA Software v2.0 or v2.1.1 (ACEA Biosciences). […]

[3] = test system: EAAT1 / mGluR2 (JumpIn-EAAT1-mGluR2 cells); assay: Impedance-based TRACT assay (xCELLigence) on JumpIn-EAAT1-mGluR2 cells; format: cell-based, human; conditions: for Substrate pEC50 ± SEM (AUC = 0–15 min): JumpIn-EAAT1-mGluR2, +dox
[4] = target: T2, EAAT1 / mGluR2 (JumpIn-EAAT1-mGluR2 cells) (Homo sapiens, UniProt P43003); assay: as above; format: cell-based
T2 construct: FLAG-tag (N); expressed in transfected cells; host or cells: Jump In T-REx HEK 293 (JumpIn-EAAT1), transiently transfected with mGluR2 cDNA
T2 sequence (P43003 whole entry, the tested form may be a part): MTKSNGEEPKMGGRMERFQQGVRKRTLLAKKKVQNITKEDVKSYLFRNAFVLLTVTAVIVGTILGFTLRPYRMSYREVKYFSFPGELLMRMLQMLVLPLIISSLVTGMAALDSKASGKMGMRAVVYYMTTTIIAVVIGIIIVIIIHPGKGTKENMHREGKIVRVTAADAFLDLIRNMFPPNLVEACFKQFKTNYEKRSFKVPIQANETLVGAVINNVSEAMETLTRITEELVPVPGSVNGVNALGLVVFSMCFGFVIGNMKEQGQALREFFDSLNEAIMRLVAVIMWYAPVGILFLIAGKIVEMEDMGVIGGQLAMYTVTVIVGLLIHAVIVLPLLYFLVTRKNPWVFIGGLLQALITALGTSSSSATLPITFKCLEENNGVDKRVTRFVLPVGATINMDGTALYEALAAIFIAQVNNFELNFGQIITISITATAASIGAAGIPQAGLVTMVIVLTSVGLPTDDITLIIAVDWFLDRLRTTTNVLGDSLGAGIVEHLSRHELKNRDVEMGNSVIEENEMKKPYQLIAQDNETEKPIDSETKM

[5] = target: T3, EAAT2 (JumpIn-EAAT2 cells) (Homo sapiens, UniProt P43004); assay: Impedance-based phenotypic assay (xCELLigence) on JumpIn-EAAT2 cells; format: cell-based; conditions: net AUC 0–120 min, read-out: Substrate pEC50 ± SEM (converted)
T3 construct: expressed in transfected cells; host or cells: Jump In T-REx HEK 293
T3 sequence (P43004 whole entry): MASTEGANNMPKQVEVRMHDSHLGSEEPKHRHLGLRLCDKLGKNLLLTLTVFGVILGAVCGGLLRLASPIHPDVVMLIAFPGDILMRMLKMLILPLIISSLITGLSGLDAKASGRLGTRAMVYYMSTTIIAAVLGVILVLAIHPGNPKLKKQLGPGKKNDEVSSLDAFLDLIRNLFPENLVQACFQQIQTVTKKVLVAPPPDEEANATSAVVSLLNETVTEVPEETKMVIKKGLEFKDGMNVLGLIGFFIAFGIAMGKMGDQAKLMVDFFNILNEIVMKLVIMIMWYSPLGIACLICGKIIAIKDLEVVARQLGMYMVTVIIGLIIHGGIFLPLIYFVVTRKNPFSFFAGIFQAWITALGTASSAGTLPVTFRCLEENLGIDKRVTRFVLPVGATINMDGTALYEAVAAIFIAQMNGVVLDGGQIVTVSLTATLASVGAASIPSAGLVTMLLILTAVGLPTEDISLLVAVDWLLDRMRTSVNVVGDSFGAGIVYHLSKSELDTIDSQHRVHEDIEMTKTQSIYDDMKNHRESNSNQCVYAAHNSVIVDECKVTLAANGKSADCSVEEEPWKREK

N[C@@H](CCC(=O)O)C(=O)O [L-glutamate, L-glutamic acid monosodium salt monohydrate] was tested, and the “Change in cell morphology after stimulation” value [1] was “drastically extend their actin cytoskeleton outward”, the “Response in dox-induced vs non-induced cells” value [2] was “significantly higher” and the “Substrate pEC50 ± SEM (AUC = 0–15 min)” value ([3]; no inhibitor, net AUC 0–15 min) was less than 3.0. For the same compound, the “Substrate pEC50 ± SEM (AUC = 0–15 min)” value ([3]; pretreated 1 h with 10 µM UCPH-101, net AUC 0–15 min) was 3.7 ± 0.2, the “Substrate pEC50 ± SEM (AUC = 0–120 min)” value ([3]; JumpIn-EAAT1-mGluR2, −dox, no inhibitor, net AUC 0–120 min) was 4.3 ± 0.1 and the pEC50 [4] was 3.30. For the same compound, the EC50 ([5]; JumpIn-EAAT2, +dox) was 251 µM and the EC50 ([5]; JumpIn-EAAT2, −dox) was 158 µM.
